The target of this test is TNKS1 (Homo sapiens, UniProt O95271). Briefly: TNKS1/PARP Biochemical Assay (TNKS1).

Take `Cc1cccc2c(=O)[nH]c(-c3ccc(C(=O)N4CCOCC4)cc3)cc12` [IQ-107]: the IC50 (in general, the concentration that gives 50% inhibition) is less than 20 nM.

The molecule `Cc1cccc2c(=O)[nH]c(-c3ccc(S(=O)(=O)N(C)C)cc3)cc12` [IQ-108] came in with an IC50 of less than 50 nM. In turn, `Cc1cccc2c(=O)[nH]c(-c3ccc(S(=O)(=O)N(C)C4CCN(C)CC4)cc3)cc12` [IQ-109] had an IC50 of less than 20 nM.

Molecule `CN1CCC(N(C)S(=O)(=O)c2ccc(-c3cc4c(Cl)cccc4c(=O)[nH]3)cc2)CC1` [IQ-110] had an IC50 of less than 500 nM. In the case of `Cc1cccc2c(=O)[nH]c(-c3ccc(S(=O)(=O)N(C)CC4CCN(C)CC4)cc3)cc12` [IQ-111], the IC50 was less than 50 nM. The value for `CN1CCC(CN(C)S(=O)(=O)c2ccc(-c3cc4c(Cl)cccc4c(=O)[nH]3)cc2)CC1` [IQ-112] was less than 50 nM. The value for `Cc1cccc2c(=O)[nH]c(-c3ccc(S(=O)(=O)N(C)CC4CCN(C(=O)OC(C)(C)C)CC4)cc3)cc12` [IQ-113] was less than 500 nM; that for `CN(CC1CCN(C(=O)OC(C)(C)C)CC1)S(=O)(=O)c1ccc(-c2cc3c(Cl)cccc3c(=O)[nH]2)cc1` [IQ-114] was less than 500 nM. In turn, `Cc1cccc2c(=O)[nH]c(-c3ccc(S(=O)(=O)N(C)CC4CCNCC4)cc3)cc12` [IQ-115] displayed an IC50 of less than 20 nM.

Molecule `CN(CC1CCNCC1)S(=O)(=O)c1ccc(-c2cc3c(Cl)cccc3c(=O)[nH]2)cc1` [IQ-116] displayed a half-maximal inhibitory concentration (IC50) of less than 50 nM.

In the case of `Cc1cccc2c(=O)[nH]c(-c3ccc(S(=O)(=O)N(C)CCN(C)C)cc3)cc12` [IQ-117], the half-maximal inhibitory concentration (IC50) is less than 20 nM. Turning to `Cc1cccc2c(=O)[nH]c(-c3ccc(S(=O)(=O)N(C)CC4CCOCC4)cc3)cc12` [IQ-118], the IC50 is less than 20 nM. The value for `Cc1cccc2c(=O)[nH]c(-c3ccc(S(=O)(=O)N(C4CC4)C4CCN(C)CC4)cc3)cc12` [IQ-119] was less than 500 nM.

As to `Cc1cccc2c(=O)[nH]c(-c3ccc(S(=O)(=O)N(C)CCO)cc3)cc12` [IQ-120], the IC50 is less than 20 nM. The value for `CN1CCN(S(=O)(=O)c2ccc(-c3cc4c(Cl)cccc4c(=O)[nH]3)cc2)CC1` [IQ-122] was less than 500 nM; that for `Cc1cccc2c(=O)[nH]c(-c3ccc(S(=O)(=O)N4CCNCC4)cc3)cc12` [IQ-123] was less than 20 nM; that for `Cc1cccc2c(=O)[nH]c(-c3ccc(S(=O)(=O)N4CCC(N(C)C)CC4)cc3)cc12` [IQ-125] was less than 20 nM. Next, `CN(C)C1CCN(S(=O)(=O)c2ccc(-c3cc4c(Cl)cccc4c(=O)[nH]3)cc2)CC1` [IQ-126]: less than 500 nM; `Cc1cccc2c(=O)[nH]c(-c3ccc(OCCN4CCCC4)cc3)cc12` [IQ-134]: less than 50 nM. Next, `CC(C)(C)OC(=O)N1CCN(c2ccc(-c3cc4c(Cl)cccc4c(=O)[nH]3)cn2)CC1` [IQ-136]: less than 500 nM. Turning to `CN1CCN(Cc2ccc(-c3cc4c(F)cc(F)cc4c(=O)[nH]3)cc2)CC1` [IQ-138], the IC50 was less than 50 nM. Regarding `Cc1cccc2c(=O)[nH]c(-c3ccc(S(=O)(=O)N4CCN(C(=O)OC(C)(C)C)CC4)cc3)cc12` [IQ-140], the IC50 was less than 500 nM. The molecule `Cc1cccc2c(=O)[nH]c(-c3ccc(CN4CCN(C(=O)OC(C)(C)C)CC4C)cc3)cc12` (stereo not shown) [IQ-142] returned an IC50 of less than 500 nM. In the case of `Cc1cccc2c(=O)[nH]c(-c3ccc(CN4CCN(C(=O)OC(C)(C)C)C(C)C4)cc3)cc12` (stereo not shown) [IQ-143], the IC50 is less than 500 nM. `CN(CC1CCN(C(=O)OC(C)(C)C)CC1)C(=O)c1ccc(-c2cc3c(Cl)cccc3c(=O)[nH]2)cc1` [IQ-145] yielded an IC50 of less than 500 nM.

On to `Cc1ccc(S(=O)(=O)N2CCN(C(C)(C)c3ccc(-c4cc5c(C)cccc5c(=O)[nH]4)cc3)CC2)cc1` [IQ-148], for which the IC50 is less than 500 nM. The value for `CC(C)(C)OC(=O)N1CCN(Cc2ccc(-c3cc4c(F)cc(F)cc4c(=O)[nH]3)cc2)CC1` [IQ-154] was less than 500 nM; that for `O=c1[nH]c(-c2ccc(CN3CCNCC3)cc2)cc2c(F)cc(F)cc12` [IQ-158] was less than 50 nM; that for `Cc1cccc2c(=O)[nH]c(-c3ccc(CN4CCN(CC5CC5)CC4)nc3)cc12` [IQ-161] was less than 500 nM. `Cc1cccc2c(=O)[nH]c(-c3ccc(CN4CCN(C(=O)C5CC5)CC4)nc3)cc12` [IQ-162] returned an IC50 of less than 20 nM.

On to `Cc1cccc2c(=O)[nH]c(-c3ccc(CN4CCNC(=O)C4)cc3F)cc12` [IQ-166], for which the IC50 was less than 500 nM. Next, `Cc1cccc2c(=O)[nH]c(-c3ccc(CN4CC(O)C4)cc3)cc12` [IQ-167]: less than 20 nM; `Cc1cccc2c(=O)[nH]c(-c3ccc(Cn4ccnc4C)cc3)cc12` [IQ-168]: less than 20 nM. Consider `Cc1cccc2c(=O)[nH]c(-c3ccc(CN4CC(O)C4)c(F)c3)cc12` [IQ-169], for which the IC50 is less than 50 nM. Next, `Cc1cc(F)cc2c(=O)[nH]c(-c3ccc(CN4CC(O)C4)cc3)cc12` [IQ-170, 7-Fluoro-3-[4-(3-hydroxy-azetidin-1-ylmethyl)-phenyl]-5-methyl-2H-isoquinolin-1-one]: less than 20 nM; `Cc1cccc2c(=O)[nH]c(-c3ccc(Cn4cncn4)cc3)cc12` [IQ-171]: less than 50 nM. The value for `Cc1cccc2c(=O)[nH]c(-c3ccc(CN4CC(C)(O)C4)cc3)cc12` [IQ-172] was less than 20 nM; that for `Cc1cccc2c(=O)[nH]c(-c3ccc(CN4CCC(N(C)C)C4)cc3)cc12` (stereo not shown) [IQ-173] was less than 50 nM. Turning to `Cc1cccc2c(=O)[nH]c(-c3ccc(CC(=O)N4CCN(C)CC4)cc3)cc12` [IQ-175], the IC50 is less than 20 nM. Next, `Cc1cccc2c(=O)[nH]c(-c3ccc(CC(=O)N(C)C4CCN(C)CC4)cc3)cc12` [IQ-176]: less than 20 nM. `CNC1CN(Cc2ccc(-c3cc4c(C)cccc4c(=O)[nH]3)cc2)C1` [IQ-177]: the IC50 was less than 20 nM. Next, `CNC1CN(Cc2ccc(-c3cc4c(C)cc(F)cc4c(=O)[nH]3)cc2)C1` [IQ-178]: less than 20 nM; `Cc1cccc2c(=O)[nH]c(-c3ccc(Cn4c(C)nc5ccccc54)cc3)cc12` [IQ-179]: less than 500 nM. Next, `Cc1cccc2c(=O)[nH]c(-c3ccc(Cn4ccnc4)cc3)cc12` [IQ-180]: less than 20 nM; `Cc1cccc2c(=O)[nH]c(-c3ccc(Cn4cnc5ccccc54)cc3)cc12` [IQ-181]: less than 500 nM. Next, `Cc1cccc2c(=O)[nH]c(-c3ccc(Cn4cccn4)cc3)cc12` [IQ-182]: less than 20 nM. For the molecule `Cc1cccc2c(=O)[nH]c(-c3ccc(Cn4cccc4)cc3)cc12` [IQ-184], the IC50 is less than 500 nM.

The molecule `Cc1cc(F)cc2c(=O)[nH]c(-c3ccc(C(C)(C)N4CC(O)C4)cc3)cc12` [IQ-185] gave an IC50 of less than 50 nM. Molecule `Cc1cc(F)cc2c(=O)[nH]c(-c3ccc(C(=O)N(C)C4CCNC4)cc3)cc12` (stereo not shown) [IQ-186] had an IC50 of less than 500 nM. The value for `COCCN(CCOC)C(=O)c1ccc(-c2cc3c(C)cccc3c(=O)[nH]2)cc1` [IQ-187] was less than 50 nM; that for `Cc1cccc2c(=O)[nH]c(-c3ccc(C(=O)N4CC(O)C4)cc3)cc12` [IQ-188] was less than 20 nM. On to `Cc1ccc(F)c2c(=O)[nH]c(-c3ccc(C(=O)N4CCN(C)CC4)cc3)cc12` [IQ-189], for which the IC50 was less than 20 nM. The molecule `Cc1cc(F)cc2c(=O)[nH]c(-c3ccc(C(=O)N4CCN(CCO)CC4)cc3)cc12` [IQ-192] returned an IC50 of less than 20 nM. The value for `Cc1ccc(F)c2c(=O)[nH]c(-c3ccc(C(=O)N4CCN(CCO)CC4)cc3)cc12` [IQ-193] was less than 20 nM. In the case of `Cc1cccc2c(=O)[nH]c(-c3cc(F)c(C(=O)N4CC(O)C4)c(F)c3)cc12` [IQ-194], the IC50 was less than 20 nM.

With `Cc1cc(F)cc2c(=O)[nH]c(-c3ccc(C(=O)N(C)C4CCN(C)CC4)cc3)cc12` [IQ-195], the IC50 is less than 20 nM.

Molecule `Cc1cccc2c(=O)[nH]c(-c3ccc(C(=O)N(C)C4CCN(C)C4)cc3)cc12` (stereo not shown) [IQ-196] yielded a 50% inhibitory concentration (IC50) of less than 20 nM. With `Cc1cc(F)cc2c(=O)[nH]c(-c3ccc(C(=O)N(C)C4CCN(C)C4)cc3)cc12` (stereo not shown) [IQ-197], the half-inhibitory concentration (IC50) was less than 20 nM. The value for `Cc1cccc2c(=O)[nH]c(-c3ccc(C(=O)N(C)Cc4nccn4C)cc3)cc12` [IQ-198] was less than 20 nM. Molecule `Cc1cccc2c(=O)[nH]c(-c3ccc(C(=O)N(C)C4CN(C)C4)cc3)cc12` [IQ-199] yielded an IC50 of less than 20 nM. Next, `Cc1cccc2c(=O)[nH]c(-c3ccc(C(=O)N(C)C4CCNC4)cc3)cc12` (stereo not shown) [IQ-200]: less than 20 nM; `Cc1cc(F)cc2c(=O)[nH]c(-c3ccc(C(=O)N(C)C4CN(C)C4)cc3)cc12` [IQ-201]: less than 50 nM. The value for `Cc1cccc2c(=O)[nH]c(-c3ccc(C(=O)N4CC(N(C)C)C4)cc3)cc12` [IQ-202] was less than 500 nM. Molecule `Cc1cc(F)cc2c(=O)[nH]c(-c3ccc(C(=O)N4CC(N(C)C)C4)cc3)cc12` [IQ-203] yielded a half-inhibitory concentration (IC50) of less than 50 nM.

In the case of `Cc1cccc2c(=O)[nH]c(-c3ccc(C(=O)N(C)CC4CCN(C)C4)cc3)cc12` (stereo not shown) [IQ-204], the IC50 is less than 20 nM.

In the case of `Cc1cccc2c(=O)[nH]c(-c3ccc(C(=O)N(C)C4CCN(C(C)C)CC4)cc3)cc12` [IQ-206], the IC50 was less than 50 nM.

In turn, `Cc1cc(F)cc2c(=O)[nH]c(-c3ccc(C(=O)N(C)CC4CCN(C)CC4)cc3)cc12` [IQ-208] yielded an IC50 of less than 20 nM. In turn, `Cc1cccc2c(=O)[nH]c(-c3ccc(C(=O)N(C)CC4(C)CCN(C)C4)cc3)cc12` (stereo not shown) [IQ-209] gave an IC50 of less than 20 nM. Next, `Cc1cc(F)cc2c(=O)[nH]c(-c3ccc(C(=O)N(C)CC4(C)CCN(C)C4)cc3)cc12` (stereo not shown) [IQ-210]: less than 20 nM; `Cc1cccc2c(=O)[nH]c(-c3ccc(C(=O)N(C)C4CCCN(C)C4)cc3)cc12` (stereo not shown) [IQ-211]: less than 20 nM. The value for `Cc1cc(F)cc2c(=O)[nH]c(-c3ccc(C(=O)N(C)C4CCCN(C)C4)cc3)cc12` (stereo not shown) [IQ-212] was less than 50 nM. The value for `Cc1cc(F)cc2c(=O)[nH]c(-c3ccc(C(=O)N(C)C4CCNCC4)cc3)cc12` [IQ-213] was less than 20 nM; that for `Cc1cccc2c(=O)[nH]c(-c3ccc(CC(=O)N4CC(O)C4)cc3)cc12` [IQ-214] was less than 20 nM; that for `Cc1cc(F)cc2c(=O)[nH]c(-c3ccc(CC(=O)N4CC(O)C4)cc3)cc12` [IQ-215] was less than 20 nM. For the molecule `Cc1cc(F)cc2c(=O)[nH]c(-c3ccc(C(C)(C)C(=O)N4CC(O)C4)cc3)cc12` [IQ-218], the IC50 is less than 50 nM. Next, `Cc1cccc2c(=O)[nH]c(-c3ccc(NC(CO)CO)nc3)cc12` [IQ-219]: less than 20 nM.
